From patent US20240166624A1, “PPARG INVERSE AGONISTS AND USES THEREOF” (Flare Therapeutics Inc., priority 2021, published 2024)
pEC50: −log10 of the molar value.

How the values were obtained:
[1] = tested on: ANGPTL4, a PPARG target gene, in HT1197 (RXRA S427F mutation) cells; experiment: Bladder cancer pharmacodynamic assay, HT1197 cell assay (qPCR of ANGPTL4); assay type: cell-based; details: Homo sapiens, 24 hours; for inhibition at 0.1 µM: 100 nM compound, relative to DMSO control
Outline: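 5637 (PPARG amplified) and HT1197 (RXRA S427F) cells treated 24 h with PPARG inverse agonists. FABP4 and ANGPTL4 expression measured by qPCR, normalised to TBP, and reported relative to DMSO control by ΔΔCt.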

[2] = biological target: T1, PPARG/RXRA LBD heterodimer (Homo sapiens, UniProt P37231); experiment: PPARγ-MED1 blockade assay (TR-FRET, biotinylated MED1 LxxLL peptide); assay type: biochemical; details: WT PPARG LBD/WT RXRA LBD, 80 nM Rosiglitazone, 3 hours
T1 construct: His-TEV-Q203-Y477; Uniprot ID P37231-2; made in house; host or cells: E. coli
T1 sequence (P37231 203-477 isoform P37231-2): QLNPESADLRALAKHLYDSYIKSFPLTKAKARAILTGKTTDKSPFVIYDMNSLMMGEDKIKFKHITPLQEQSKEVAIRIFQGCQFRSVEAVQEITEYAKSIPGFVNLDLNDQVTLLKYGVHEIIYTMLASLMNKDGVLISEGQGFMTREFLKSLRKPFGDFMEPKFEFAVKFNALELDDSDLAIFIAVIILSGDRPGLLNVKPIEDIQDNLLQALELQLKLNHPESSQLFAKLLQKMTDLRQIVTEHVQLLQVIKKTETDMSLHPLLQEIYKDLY
T1 sequence (P19793 228-462 partner limits assumed): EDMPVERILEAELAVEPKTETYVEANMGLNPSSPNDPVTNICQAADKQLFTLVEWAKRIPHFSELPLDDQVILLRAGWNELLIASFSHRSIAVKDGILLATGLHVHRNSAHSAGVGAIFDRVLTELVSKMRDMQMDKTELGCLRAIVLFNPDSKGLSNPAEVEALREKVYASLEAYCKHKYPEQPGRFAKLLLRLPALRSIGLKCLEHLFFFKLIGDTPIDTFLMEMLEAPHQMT
Outline: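 TR-FRET measuring biotinylated MED1 LxxLL peptide association with 2 nM each His-PPARG LBD (Q203-Y477) and Flag-RXRA LBD (E228-T462), E. coli expressed. Read after 3 h incubation; ratios normalized to DMSO (0%) and GW9662 minimum (100%) for IC50 and maximal MED1 repulsion.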

[3] = biological target: T2, PPARG/RXRA LBD heterodimer (Homo sapiens, UniProt P37231); experiment: PPARγ-NCOR1 recruitment assay (TR-FRET, biotinylated NCOR1 ID2 peptide); assay type: biochemical; details: 80 nM Rosiglitazone, 3 hours, read-out: PPARG-NCOR recruitment assay EC50
T2 construct: His-TEV-Q203-Y477; Uniprot ID P37231-2; made in house; host or cells: E. coli
Outline: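 2 nM each of E. coli-expressed PPARG LBD (Q203-Y477) and RXRA LBD (WT or S427F, E228-T462) with biotinylated NCOR1 ID2 peptide, incubated 3 h; TR-FRET read at Ex/Em 615/665. Ratios normalized to DMSO (0%) and T0070907 maximum (100%) for EC50 and maximal recruitment.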
T2 sequence (O75376 2251-2273 partner, one chain of several): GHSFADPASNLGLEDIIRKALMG

[4] = tested on: FABP4, a PPARG target gene, in 5637 (PPARG amplified) cells; experiment: Bladder cancer pharmacodynamic assay, 5637 cell assay (qPCR of FABP4); assay type: cell-based; details: 5637 cells, 24 hours, 100 nM compound, relative to DMSO control
Description: Bladder Cancer Pharmacodynamic Assay
5637 (PPARG amplified) and HT1197 (RXRA S427F mutation) cells were used for assessment of modulation of PPARG target genes using quantitative PCR. Cells were treated for 24 hours with PPARG inverse agonists prior to analysis of FABP4 (IDT, Cat: Hs.PT 58.20106818) and ANGPTL4 (IDT, Cat: Hs.PT 58.25480012) expression, with expression of the housekeeping gene TBP (IDT, Cat: Hs.PT 58v.39858774) used to normalize expression across samples. Quantitative PCR was performed using an ABI QuantStudio 7 Flex Reaction system. Data were analyzed and reported relative to DMSO control using the comparative Ct method (ΔΔCt).

Structure (SMILES) | pEC50 [2] | pEC50 [3] | pEC50 ([1]; ANGPTL4 expression) | inhibition at 0.1 µM [1] | inhibition at 0.1 µM [4]
N#Cc1ccc(Cl)c(-c2cc(=O)c3c(F)cc(F)cc3[nH]2)c1 [Example 1, 4-chloro-3-(5,7-difluoro-4-oxo-1,4-dihydroquinolin-2-yl)benzonitrile] | 6.00 to 7.00 | 6.00 to 7.00 | 8.30 | 88% | 95%
N#Cc1ccc(Cl)c(-c2cc(=O)c3cc(F)c(F)cc3[nH]2)c1 [Example 5, 4-chloro-3-(6,7-difluoro-4-oxo-1H-quinolin-2-yl)benzonitrile] | 5.00 to 6.00 | 5.00 to 6.00 |  | 86% | 90%
N#Cc1ccc(Cl)c(-c2cc(=O)c3c(F)c(-c4ccc(C(F)(F)F)cc4)c(F)cc3[nH]2)c1 [Example 11, 4-chloro-3-(5,7-difluoro-4-oxo-6-(4-(trifluoromethyl)phenyl)-1,4-dihydroquinolin-2-yl)benzonitrile] | 6.00 to 7.00 | 7.00 to 8.00 |  | 88% | 94%
N#Cc1ccc(Cl)c(-c2cc(=O)c3c(F)c(CCC(=O)O)c(F)cc3[nH]2)c1 [Example 77, 3-(2-(2-chloro-5-cyanophenyl)-5,7-difluoro-4-oxo-1,4-dihydroquinolin-6-yl)propanoic acid] | 5.00 to 6.00 | 5.00 to 6.00 |  | 44% | 

Second part, led by results:

pEC50 [2] | pEC50 [3] | pEC50 ([1]; ANGPTL4 expression) | Structure (SMILES) | inhibition at 0.1 µM [1] | inhibition at 0.1 µM [4]
6.00 to 7.00 | 6.00 to 7.00 |  | N#Cc1ccc(Cl)c(-c2cc(=O)c3cc(Cl)c(Cl)cc3[nH]2)c1 [Example 2, 4-chloro-3-(6,7-dichloro-4-oxo-1,4-dihydroquinolin-2-yl)benzonitrile] | 83% | 93%
7.00 to 8.00 | 7.00 to 8.00 |  | N#Cc1ccc(Br)c(-c2cc(=O)c3c(F)cc(F)cc3[nH]2)c1 [Example 4, 4-bromo-3-(5,7-difluoro-4-oxo-1,4-dihydroquinolin-2-yl)benzonitrile] | 90% | 94%
6.00 to 7.00 | 6.00 to 7.00 |  | N#Cc1ccc(Br)c(-c2cc(=O)c3cc(F)c(F)cc3[nH]2)c1 [Example 6, 4-bromo-3-(6,7-difluoro-4-oxo-1,4-dihydroquinolin-2-yl)benzonitrile] |  | 93%
